Active and inactive are the calls of the source. The rule behind the calls is not given here.
Key:
Nucleic Acid [1] = assay: Binding affinity to dT12 DNA by circular dichroism spectra analysis; type: nucleic-acid assay
Nucleic Acid [2] = assay: Binding affinity to dT12 DNA by ultraviolet spectra analysis; type: nucleic-acid assay
Nucleic Acid [3] = assay: Binding affinity to poly(U) RNA by circular dichroism spectra analysis; type: nucleic-acid assay
Nucleic Acid [4] = assay: Binding affinity to poly(U) RNA by ultraviolet spectra analysis; type: nucleic-acid assay
[5] = tested on: Moloney murine leukemia virus; assay: Inhibition of Moloney murine leukemia virus reverse transcriptase at 0.5 ug after 1 hr by RT-PCR analysis relative to control
[6] = tested on: Moloney murine leukemia virus; assay: Inhibition of Moloney murine leukemia virus reverse transcriptase at 1 ug after 1 hr by RT-PCR analysis relative to control
[7] = target: Human immunodeficiency virus type 1 reverse transcriptase (Human immunodeficiency virus 1) (UniProt Q72547); assay: Inhibition of HIV1 reverse transcriptase at 0.5 to 1 ug after 1 hr by RT-PCR analysis relative to control

Cc1cn(CC(=O)NCCCC[C@H](N)C(=O)NCC[C@H](N)C(=O)NCCCC[C@H](N)C(=O)NCC[C@H](N)C(=O)NCCCC[C@H](N)C(=O)NCC[C@H](N)C(=O)NCCCC[C@H](N)C(=O)NCC[C@H](N)C(=O)NCCCC[C@H](N)C(=O)NCC[C@H](N)C(=O)NCCCC[C@H](N)C(=O)NCC[C@H](N)C(=O)NCCCC[C@H](N)C(=O)NCC[C@H](N)C(=O)NCCCC[C@H](N)C(=O)NCC[C@H](N)C(=O)NCCCC[C@H](N)C(N)=O)c(=O)[nH]c1=O
Activity (Nucleic Acid [1]): inactive
Activity (Nucleic Acid [2]): inactive
Activity (Nucleic Acid [3]): Active
Activity (Nucleic Acid [4]): Active
inhibition [5]: 30%
inhibition [6]: 18%
inhibition [7]: 60%

Source: ChEMBL document CHEMBL1764992, “RNA-binding and viral reverse transcriptase inhibitory activity of a novel cationic diamino acid-based peptide” (J Med Chem, 2011)
